The record followed here is patent publication US9556200B2, “Tricyclic compound” (TAKEDA PHARMACEUTICAL COMPANY LIMITED, priority 2012, dated 2017).

Counter-ions that a name gives are not always drawn.

serotonin 5-HT2C receptor (VSV type isoform, stably expressed in CHO cells), sequence (P28335 33-458 I156V/N158S/I160V limits assumed): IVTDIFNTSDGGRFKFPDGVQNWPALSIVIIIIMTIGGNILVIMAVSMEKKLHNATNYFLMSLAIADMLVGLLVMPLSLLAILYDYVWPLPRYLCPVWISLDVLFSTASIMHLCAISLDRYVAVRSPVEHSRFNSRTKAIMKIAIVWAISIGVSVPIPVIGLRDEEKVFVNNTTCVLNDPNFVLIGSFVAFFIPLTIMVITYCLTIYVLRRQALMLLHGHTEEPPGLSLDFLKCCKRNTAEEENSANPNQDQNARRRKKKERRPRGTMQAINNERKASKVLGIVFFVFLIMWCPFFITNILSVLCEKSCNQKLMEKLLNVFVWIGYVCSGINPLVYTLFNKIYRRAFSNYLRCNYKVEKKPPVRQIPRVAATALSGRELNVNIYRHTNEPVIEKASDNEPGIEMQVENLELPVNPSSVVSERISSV

The test concerns the target serotonin 5-HT2C receptor (VSV type isoform, stably expressed in CHO cells) (Homo sapiens, UniProt P28335, I156V/I160V/N158S). The experiment in a line: cell-based. The conditions noted are these: read-out: ratio (%) relative to maximum response by 5-HT (10 μM).
Turning to `CN1CC2CNCCc3ccc(Cl)c1c32` (centres unmarked) [Example 5, 9-chloro-1-methyl-2,2a,3,4,5,6-hexahydro-1H-azepino[3,4,5-cd]indole hydrochloride], the Emax was determined as 108%.

Take `O=C(c1ccccc1)N1CC2CNCCc3ccc(Cl)c1c32` (centres unmarked) [Example 37, (9-chloro-2,2a,3,4,5,6-hexahydro-1H-azepino[3,4,5-cd]indol-1-yl)(phenyl)methanone hydrochloride]: the Emax was determined as 95%.

For the compound `CCN1C[C@@H]2CNCCc3ccc(Cl)c1c32` [Example 29, (2aS)-9-chloro-1-ethyl-2,2a,3,4,5,6-hexahydro-1H-azepino[3,4,5-cd]indole hydrochloride], the Emax turned out to be 93%.

Consider `Clc1ccc2c3c1N(C1CC1)C[C@@H]3CNCC2` [Example 30, (2aS)-9-chloro-1-cyclopropyl-2,2a,3,4,5,6-hexahydro-1H-azepino[3,4,5-cd]indole], for which the Emax worked out at 94%.

With `O=C(c1ccccc1)N1CC2CNCCc3cccc1c32` (centres unmarked) [Example 36, 2,2a,3,4,5,6-hexahydro-1H-azepino[3,4,5-cd]indol-1-yl(phenyl)methanone hydrochloride], the Emax was 79%.

Consider `CC(C)N1CC2CNCCc3cccc1c32` (centres unmarked) [Example 15, 1-isopropyl-2,2a,3,4,5,6-hexahydro-1H-azepino[3,4,5-cd]indole hydrochloride], for which the Emax is 98%.

For the compound `Clc1ccc2c3c1NCC3CNCC2` (centres unmarked) [Example 26, 9-chloro-2,2a,3,4,5,6-hexahydro-1H-azepino[3,4,5-cd]indole], the Emax is 98%.

On to `CC(=O)N1C[C@H]2CNCCc3ccc(Cl)c1c32` [Example 25, 1-((2aR)-9-chloro-2,2a,3,4,5,6-hexahydro-1H-azepino[3,4,5-cd]indol-1-yl)ethanone hydrochloride], for which the Emax was found to be 96%.

Regarding `CN1C[C@H]2CNCCc3ccc(Cl)c1c32` [Example 8, (2aR)-9-chloro-1-methyl-2,2a,3,4,5,6-hexahydro-1H-azepino[3,4,5-cd]indole hydrochloride], the Emax amounted to 105%.

Regarding `O=C(c1ccccc1)N1CC2CNCCc3c(Cl)ccc1c32` (centres unmarked) [Example 38, (7-chloro-2,2a,3,4,5,6-hexahydro-1H-azepino[3,4,5-cd]indol-1-yl)(phenyl)methanone hydrochloride], the Emax turned out to be 93%.

Turning to `CC(=O)N1CC2CNCCc3ccc(Cl)c1c32` (centres unmarked) [Example 21, 1-(9-chloro-2,2a,3,4,5,6-hexahydro-1H-azepino[3,4,5-cd]indol-1-yl)ethanone hydrochloride], the Emax came out at 109%.

`CN1CC2CNCCc3c(Br)ccc1c32` (centres unmarked) [Example 13, 7-bromo-1-methyl-2,2a,3,4,5,6-hexahydro-1H-azepino[3,4,5-cd]indole hydrochloride]: the Emax came to 81%.

As for `c1ccc(CN2CC3CNCCc4cccc2c43)cc1` (centres unmarked) [Example 19, 1-benzyl-2,2a,3,4,5,6-hexahydro-1H-azepino[3,4,5-cd]indole hydrochloride], the Emax worked out at 96%.

On to `O=C(c1ccccc1)N1CC2CNCCc3c(Cl)cc(Cl)c1c32` (centres unmarked) [Example 39, 7,9-dichloro-1-(phenylcarbonyl)-2,2a,3,4,5,6-hexahydro-1H-azepino[3,4,5-cd]indole hydrochloride], for which the Emax worked out at 93%.

For the compound `CN1CC2CNCCc3cccc1c32` (centres unmarked) [Example 4, 1-methyl-2,2a,3,4,5,6-hexahydro-1H-azepino[3,4,5-cd]indole hydrochloride], the Emax turned out to be 100%.

As for `CC(C)N1C[C@H]2CNCCc3ccc(Cl)c1c32` [Example 18, (2aR)-9-chloro-1-isopropyl-2,2a,3,4,5,6-hexahydro-1H-azepino[3,4,5-cd]indole hydrochloride], the Emax is 105%.

For the compound `c1cc2c3c(coc3c1)CNCC2` [Example 31, 3,4,5,6-tetrahydrofuro[4,3,2-ef][3]benzazepine hydrochloride], the Emax came out at 85%.

For `CC(C)C(=O)N1CC2CNCCc3cccc1c32` (centres unmarked) [Example 34, 1-(2,2a,3,4,5,6-hexahydro-1H-azepino[3,4,5-cd]indol-1-yl)-2-methylpropan-1-one hydrochloride], the Emax was determined as 77%.

For `CC(=O)N1CC2CNCCc3c(Cl)cc(Cl)c1c32` (centres unmarked) [Example 23, 1-(7,9-dichloro-2,2a,3,4,5,6-hexahydro-1H-azepino[3,4,5-cd]indol-1-yl)ethanone], the Emax amounted to 100%.

With `CC(=O)N1CC2CNCCc3cccc1c32` (centres unmarked) [Example 20, 1-(2,2a,3,4,5,6-hexahydro-1H-azepino[3,4,5-cd]indol-1-yl)ethanone hydrochloride], the Emax stood at 94%.

With `Clc1ccc2c3c1OCC3CNCC2` (centres unmarked) [Example 33, 9-chloro-2,2a,3,4,5,6-hexahydrofuro[4,3,2-ef][3]benzazepine hydrochloride], the Emax is 94%.

Regarding `c1cc2c3c(c1)SCC3CNCC2` (centres unmarked) [Example 43, 2,2a,3,4,5,6-hexahydrothieno[4,3,2-ef][3]benzazepine hydrochloride], the Emax turned out to be 107%.

Turning to `c1cc2c3c(c1)NCC3CNCC2` (centres unmarked) [Example 2, 2,2a,3,4,5,6-hexahydro-1H-azepino[3,4,5-cd]indole dihydrochloride], the Emax was determined as 107%.

Consider `CC(C)N1C[C@@H]2CNCCc3ccc(Cl)c1c32` [Example 17, (2aS)-9-chloro-1-isopropyl-2,2a,3,4,5,6-hexahydro-1H-azepino[3,4,5-cd]indole hydrochloride], for which the Emax came to 99%.

As for `CC(C)c1ccc2c3c1N(C)CC3CNCC2` (centres unmarked) [Example 40, 9-isopropyl-1-methyl-2,2a,3,4,5,6-hexahydro-1H-azepino[3,4,5-cd]indole], the Emax is 93%.

In the case of `Cc1ccc2c3c1N(C)C[C@H]3CNCC2` [Example 12, (2aR)-1,9-dimethyl-2,2a,3,4,5,6-hexahydro-1H-azepino[3,4,5-cd]indole 0.5 sulfate], the Emax came to 102%.

Take `CN1CC2CNCCc3c(Cl)cc(Cl)c1c32` (centres unmarked) [Example 7, 7,9-dichloro-1-methyl-2,2a,3,4,5,6-hexahydro-1H-azepino[3,4,5-cd]indole]: the Emax was determined as 97%.

With `CC(C)C(=O)N1CC2CNCCc3c(Cl)ccc1c32` (centres unmarked) [Example 35, 1-(7-chloro-2,2a,3,4,5,6-hexahydro-1H-azepino[3,4,5-cd]indol-1-yl)-2-methylpropan-1-one hydrochloride], the Emax is 99%.

Regarding `CN1CC2CNCCc3c(Cl)ccc1c32` (centres unmarked) [Example 6, 7-chloro-1-methyl-2,2a,3,4,5,6-hexahydro-1H-azepino[3,4,5-cd]indole hydrochloride], the Emax worked out at 98%.

As for `CN1CC2CNCCc3c(Br)cc(Br)c1c32` (centres unmarked) [Example 14, 7,9-dibromo-1-methyl-2,2a,3,4,5,6-hexahydro-1H-azepino[3,4,5-cd]indole hydrochloride], the Emax at 10 µM amounted to 87%.

For the compound `CC(C)N1CC2CNCCc3ccc(Cl)c1c32` (centres unmarked) [Example 16, 9-chloro-1-isopropyl-2,2a,3,4,5,6-hexahydro-1H-azepino[3,4,5-cd]indole hydrochloride], the Emax is 101%.

Regarding `c1cc2c3c(csc3c1)CNCC2` [Example 41, 3,4,5,6-tetrahydrothieno[4,3,2-ef][3]benzazepine hydrochloride], the Emax is 91%.

Consider `c1cc2c3c(c1)OCC3CNCC2` (centres unmarked) [Example 32, 2,2a,3,4,5,6-hexahydrofuro[4,3,2-ef][3]benzazepine hydrochloride], for which the Emax came out at 97%.

Take `c1cc2c3c(c[nH]c3c1)CNCC2` [Example 1, 3,4,5,6-tetrahydro-1H-azepino[3,4,5-cd]indole hydrochloride]: the Emax is 104%.

In the case of `Cc1ccc2c3c1N(C)C[C@@H]3CNCC2` [Example 11, (2aS)-1,9-dimethyl-2,2a,3,4,5,6-hexahydro-1H-azepino[3,4,5-cd]indole 0.5 sulfate], the Emax turned out to be 102%.

`O=S1(=O)CC2CNCCc3cccc1c32` (centres unmarked) [Example 42, 2,2a,3,4,5,6-hexahydrothieno[4,3,2-ef][3]benzazepine 1,1-dioxide hydrochloride]: the Emax came out at 102%.

`CC(=O)N1CC2CNCCc3c(Cl)ccc1c32` (centres unmarked) [Example 22, 1-(7-chloro-2,2a,3,4,5,6-hexahydro-1H-azepino[3,4,5-cd]indol-1-yl)ethanone hydrochloride]: the Emax was 105%.

Take `CN1C[C@@H]2CNCCc3ccc(Cl)c1c32` [Example 9, (2aS)-9-chloro-1-methyl-2,2a,3,4,5,6-hexahydro-1H-azepino[3,4,5-cd]indole hydrochloride]: the Emax was 109%.

On to `Cn1cc2c3c(cccc31)CCNC2` [Example 3, 1-methyl-3,4,5,6-tetrahydro-1H-azepino[3,4,5-cd]indole], for which the Emax is 106%.

Take `Cc1ccc2c3c1N(C)CC3CNCC2` (centres unmarked) [Example 10, 1,9-dimethyl-2,2a,3,4,5,6-hexahydro-1H-azepino[3,4,5-cd]indole hydrochloride]: the Emax came out at 100%.

`CC(=O)N1C[C@@H]2CNCCc3ccc(Cl)c1c32` [Example 24, 1-((2aS)-9-chloro-2,2a,3,4,5,6-hexahydro-1H-azepino[3,4,5-cd]indol-1-yl)ethanone hydrochloride]: the Emax is 96%.
